# Laboratory results published in US4076659A, “L-Val^10 -somatostatin and intermediates thereto” (Eli Lilly and Company, priority 1976, dated 1978).
# Bridge positions count the residues as written; N and C are the ends. Peptide text beside a SMILES is read from it.
# Tested on: release of growth hormone
# Assay: Inhibition of growth hormone release in sodium pentobarbitol-stimulated rats (modified Brazeau method)
# Assay type: in vivo, mature male Spraque-Dawley rats
# Conditions: subcutaneously, sodium pentobarbitol-stimulated GH secretion, vs saline control group
# Procedure: The product from Example 4 was tested for its activity in inhibiting the release of growth hormone. The procedure which was employed is carried out using mature male Spraque-Dawley rats (Laboratory Supply Company, Indianapolis, Indiana). The test is a modification of the method of P. Brazeau, W. Vale, and R. Guilleman, Endocrinology, 94 184 (1974). In this assay, five groups of eight rats each were employed. First, sodium pentobarbitol was administered to all 40 rats to stimulate growth hormone secretion. One of the groups of eight rats is the control group and received only saline. Two of the groups received somatostatin, one at 2 μg./rat, subcutaneously, and the other at 50 μg./rat, subcutaneously. The other two groups received L-Val^10 -somatostatin, one at 2 μg./rat, subcutaneously and the other at 50 μg./rat, subcutaneously. The degree of inhibition of serum growth hormone concentration then was determined with respect to the control group, and the relative activities of L-Val^10 -somatostatin and somatostatin itself were compared.
smiles,measurement,setting,value
CC(C)[C@@H]1NC(=O)[C@H](CCCCN)NC(=O)[C@H](Cc2c[nH]c3ccccc23)NC(=O)[C@H](Cc2ccccc2)NC(=O)[C@H](Cc2ccccc2)NC(=O)[C@H](CC(N)=O)NC(=O)[C@H](CCCCN)NC(=O)[C@@H](NC(=O)CNC(=O)[C@H](C)N)CSSC[C@@H](C(=O)O)NC(=O)[C@H](CO)NC(=O)[C@H]([C@@H](C)O)NC(=O)[C@H](Cc2ccccc2)NC1=O [L-Val^10 -somatostatin] (H-AGCKNFFWKVFTSC-OH; disulfide 3-14),diminished serum growth hormone concentration over control,2 μg./rat,49%
same,diminished serum growth hormone concentration over control (inhibition),50 μg./rat,72%
